Common to all, as to type: biochemical
One experiment concerns the target CDK1/CyclinA2 (Homo sapiens (Human), UniProt P06493). Briefly: CDK kinase inhibitory activity, ADP-Glo Kinase Assay, CDK1/CyclinA2. As to the method: (§1) Measurement of CDK kinase inhibitory activity of the compounds of this disclosure.
(§2) In vitro inhibitory effect of the compounds of the disclosure on CDK (CDK1, CDK4 and CDK6) kinase activity was tested by the following method.
(§3) 1.1 Instrument and Kit Information
(§4) 1.2 Experimental Preparation • 1.2.1 Preparation of Kinase Reaction Buffer I: The 5×Reaction Buffer A (Promega; V307A-C) provided in the kit was mixed and diluted with MILLI-Q® H2O and 0.1 M DTT (dithiothreitol) to give 4× kinase buffer, and then MILLI-Q® H2O was further added to finally formulate the solution into 1× Kinase buffer.
(§5) 1 μl of 10 mM standard substance stock solution was taken and added to 9 μl of kinase reaction buffer I and mixed well; then 90 μl of kinase reaction buffer I was added and mixed well; then 100 μl of kinase reaction buffer I was added and mixed well. The final concentration was 50 μM. • b. 40 μl of kinase reaction buffer II was added into B2 to B10 of a 96-well plate, and 50 μl of the above solution was added into B1; • c. 10 μl of solution was taken from well B1, added into B2, and mixed well; then 10 μl of the resulting solution was taken and added into B3, and dilution was carried out in sequence to B9, so as to obtain control solutions that are diluted by 5-fold sequentially. • (2) Preparation of test compound solution: • a. Test compound solutions at a certain concentration were taken, respectively, diluted with kinase reaction buffer I to a final concentration of 50 μM compound solution; • b. 40 μl of kinase reaction buffer II was added into H2 to H10 of the 96-well plate; and 50 μl of the above solution was added into H1; • c. 10 μl of solution was taken from well H1, added into H2, and mixed well; then 10 μl of the resulting solution was taken and added into H3, and dilution was carried out in sequence to H9, so as to obtain test compound solutions that are diluted by 5-fold sequentially. • 1.2.4 Preparation of a mixed solution of reaction substrate and ATP: • a. Preparation of ATP solution: • 200 μl of 0.1 mM ATP solution: 2 μl of 10 mM ATP was added to 198 μl of kinase reaction buffer I; • 300 μl of 50 μM ATP solution: 150 μl of kinase reaction buffer I was added to 150 μl of the above 0.1 mM ATP solution; • b. Preparation of 300 μl of reaction substrate solution: • 150 μl 1 μg/μl reaction substrate stock solution was added to 150 μl kinase reaction buffer I, and mixed well; • c. The above a/b solutions were mixed to obtain mixed solutions, respectively.
(§6) 1.3 Experimental process: • 1.3.1: 2 μl of compound solutions of various concentrations were taken, added to a 384-well plate, and centrifuged 3 minutes; • 1.3.2: 4 μl of kinase solution was added to each well, centrifuged at 5000 rpm and 18° C. for 10 minutes, and shaken on a plate shaker for 10 minutes; • 1.3.3: 4 μl of mixed solution of substrate and ATP was added to each well, centrifuged at 5000 rpm and 18° C. for 10 minutes, and shaken on a plate shaker at 37° C. for 90 minutes; • 1.3.4: The 384-well plate was taken out, and allowed to stand to room temperature; • 1.3.5: 10 μl of ADP-GLO™ reagent was added to each well, centrifuged at 5000 rpm and 18° C. for 18 minutes, and shaken on a plate shaker at 25° C. for 40 minutes, and then the reaction was stopped; • 1.3.6: 20 μl of kinase detection reagent was added to each well, centrifuged at 5000 rpm and 18° C. for 10 minutes, and shaken on a plate shaker at 25° C. for 30 minutes; and • 1.3.7: M1000pro MICROPLATE READER was used to read […] values.
(§7) The inhibition rate of each compound at each concentration point was calculated by the formula as follows and curve fitting was performed by GraphPad Prism 5 software to obtain the IC50 value.

In a further experiment the target is CDK6/CyclinD3 (Homo sapiens (Human), UniProt Q00534). Briefly: CDK kinase inhibitory activity, ADP-Glo Kinase Assay, CDK6/CyclinD3. The settings on record: for CDK1/CDK6 / CDK9/CDK6: ratio of IC50s; for CDK1/CDK6: selectivity for CDK6 over CDK1; for CDK9/CDK6: selectivity for CDK6 over CDK9. The procedure:
as §1, §2, §3, §4, §5, §6, §7

Another experiment concerns the target CDK9/CyclinD3 (Homo sapiens (Human), UniProt P50750). Briefly: Kinase inhibitory activity, ADP-Glo Kinase Assay, CDK9/CyclinD3. As to the method: as §3, §4, §5, §6, §7

pIC50: −log10 of the molar value.

This note sets out measurements from patent publication US11091476B2, “Protein kinase inhibitors, preparation method and medical use thereof” (Gan & Lee Pharmaceuticals, priority 2015, dated 2021).

In the case of `CCN1CCN(Cc2ccc(Nc3ncc(F)c(-c4cc(F)c5c(c4)C(CC)(CC)C(C)=N5)n3)nc2)CC1` [Example 10], the pIC50 against CDK1/CyclinA2 is 6.36. In addition, on CDK6/CyclinD3, the pIC50 was 7.33, the CDK1/CDK6 is recorded as 9.25 and the CDK9/CDK6 is given as 0.57. Moreover, the pIC50 against CDK9/CyclinD3 is 7.57.
With `CC1=Nc2c(F)cc(-c3nc(Nc4ccc(C5CCN(CCO)CC5)cn4)ncc3F)cc2C12CCCC2` [Example 30, 2-(4-(6-((5-fluoro-4-(7′-fluoro-2′-methylspiro[cyclopentane-1,3′-indol]-5′-yl)pyrimidin-2-yl)amino)pyridin-3-yl)piperidin-1-yl)ethanol], on CDK1/CyclinA2, the pIC50 was 6.75. Besides, at CDK6/CyclinD3, the negative logarithm of the IC50 (pIC50) was 9.31, the CDK1/CDK6 came to 360.37 and the CDK9/CDK6 was 0.88. At CDK9/CyclinD3, this molecule gave a pIC50 of 9.37.
On to `CCC1(C)C(C)=Nc2c(F)cc(-c3nc(Nc4ccc5c(n4)CCN(C(=O)CO)C5)ncc3F)cc21` (centres unmarked) [Example 39, 1-(2-((4-(3-Ethyl-7-fluoro-2,3-dimethyl-3H-indol-5-yl)-5-fluoropyrimidin-2-yl)amino)-7,8-dihydro-1,6-naphthyridine-6 (5H)-yl)-2-hydroxyacetamide], for which the pIC50 was 7.41 on CDK1/CyclinA2 and 8.25 against CDK6/CyclinD3. Further, on CDK6/CyclinD3, the CDK1/CDK6 was 6.82.
Taken in the same sequence, the figures for `CCC1(CC)C(C)=Nc2c(F)cc(-c3nc(Nc4ccc(C5CCN(C)CC5)cn4)ncc3F)cc21` [Example 38, 4-(3,3-diethyl-7-fluoro-2-methyl-3H-indol-5-yl)-5-fluoro-N-(5-(1-methylpiperidin-4-yl)pyridin-2-yl)pyrimidine-2-amino] were 7.70, 9.70 and 99.15.
For `CCC1(C)C(C)=Nc2ccc(-c3nc(Nc4ccc(C5CCN(C)CC5)cn4)ncc3F)cc21` (centres unmarked) [Example 35, 4-(3-ethyl-2,3-dimethyl-3H-indol-5-yl)-5-fluoro-N-(5-(1-methylpiperidin-4-yl)-pyridin-2-yl)pyrimidine-2-amino], in that order: 7.19, 8.06 and 7.33.
The molecule `CCC1(CC)C(C)=Nc2c(F)cc(-c3nc(Nc4ccc(N5CCNCC5)cn4)ncc3F)cc21` [Example 29, 4-(3,3-diethyl-7-fluoro-2-methyl-3H-indol-5-yl)-5-fluoro-N-(5-(piperazin-4-yl)pyridin-2-yl)pyrimidine-2-amino] showed a pIC50 on CDK1/CyclinA2 of 7.08. Also, at CDK6/CyclinD3, the negative-log IC50 (pIC50) was 8.50 and the CDK1/CDK6 was 26.20.
`CCN1CCC(c2ccc(Nc3ncc(F)c(-c4cc(F)c5c(c4)C(C)(CC)C(C)=N5)n3)nc2)CC1` (centres unmarked) [Example 26, 4-(3-ethyl-7-fluoro-2,3-dimethyl-3H-indol-5-yl)-N-(5-(1-ethylpiperidin-4-yl)pyridin-2-yl)-5-fluoropyrimidine-2-amino]: at CDK6/CyclinD3, the negative logarithm of the IC50 (pIC50) was 7.90, the CDK1/CDK6 stood at 17.27 and the CDK9/CDK6 is given as 0.88. The same molecule had a negative logarithm of the IC50 (pIC50) on CDK9/CyclinD3 of 7.96.
For the molecule `CC1=Nc2ccc(-c3nc(Nc4ccc(C5CCNCC5)cn4)ncc3F)cc2C12CCCC2` [Example 15, 5-fluoro-4-(2′-methylspiro[cyclopentane-1,3′-indol]-5′-yl)-N-(5-(piperidin-4-yl)pyridin-2-yl)pyrimidine-2-amino], the negative logarithm of the IC50 (pIC50) against CDK1/CyclinA2 was 7.57. Also, at CDK6/CyclinD3, the pIC50 was 8.37 and the CDK1/CDK6 is on record as 6.25.
For `CC1=Nc2c(F)cc(-c3nc(Nc4ccc(CN5CCN(C)CC5)cn4)ncc3F)cc2C12CCCC2` [Example 43, 5-Fluoro-4-(7′-fluoro-2′-methylspiro[cyclopentane-1,3′-indol]-5′-yl)-N-(5-((4-methylpiperazin-1-yl)methyl)pyridin-2-yl)pyrimidine-2-amino], in that order: 6.57, 9.05 and 298.78.
